Data as given in publication PMC5636972 (Cell Death & Disease, 2017).

What was measured:
MKN-45 cells = test: MTT cell viability assay, MKN-45; type: cell-based
Excerpt: (§1) To evaluate the potency of I-Trp in killing these cancer cell lines, we performed MTT assay to determine the cell viability of target cells. […] The cancer cells with higher expression levels of CCT-β were indeed more sensitive to I-Trp.

HCT116 cells = test: MTT cell viability assay, HCT116; type: cell-based
Excerpt: as §1

MDA-MB-231 cells [1] = test: MTT cell viability assay, MDA-MB-231; type: cell-based; details: for killing these cancer cells (in words): MDA-MB-231, MKN-45, HCT116, Colo205, Table 1; for EC50: MTT, 72 h
Excerpt: as §1

Colo205 cells = test: MTT cell viability assay, Colo205; type: cell-based
Excerpt: as §1

MCF-10A cells = test: MTT cell viability assay, non-tumorigenic MCF-10A; type: cell-based; details: for EC50: MTT, 72 h, normal cells
Excerpt: as §1

I-Trp-induced apoptosis = test: Reversal of I-Trp-induced apoptosis by pretreatment with inhibitors (sub-G0 flow cytometry); type: cell-based
Method: Figure 4 Effect of I-Trp on the levels of intracellular Ca^2+. (a) I-Trp induces intracellular Ca^2+ release in a concentration-dependent manner. Cells were pretreated with BAPTA/AM (negative control) for 1 h, with MCN-A-343 (positive control) or different concentrations of I-Trp and incubated with Fluo-4 for 40 min. After incubation, the fluorescence signal was immediately measured using a fluorescence microplate reader by excitation at 509 nm and emission at 516 nm. (b) Cells were pre-incubated with BAPTA/AM (1–20 μM) for 1 h prior to treatment with EC50 concentrations of I-Trp for 72 h. Cell apoptosis was assessed via PI-based flow cytometric analysis. Data are expressed as mean±S.D. ***P<0.001, significant difference as compared to control. ^#P<0.05, ^##P<0.01 and ^###P<0.001 significant difference as compared to I-Trp alone
Next, we used ERK1/2 inhibitor U0126,[33], [34] JNK inhibitor SP600125,[35], [36] and p38 inhibitor SB203580[37] to confirm the involvement of MAPKs in I-Trp-induced apoptosis. We pretreated the cancer cell lines with 0.5–10 μM U0126, 1–10 μM SP600125, or 1–10 μM SB203580 for 1 h and subsequently treated them with I-Trp to detect the sub-G0 cell accumulation by flow cytometry.
(§2) Cells (3 × 10^5) were fixed in 70% ice-cold EtOH for 30 min at RT. Cells were washed with PBS once and then incubated with propidium iodide (PI) staining solution (PBS containing 0.1 % BSA, 0.1% RNase A, and […] PI) for 30 min at RT in the dark. After the incubation, the cells were analyzed by flow cytometry to assess their DNA content.

[2] = tested on: MDA-MB-231, MKN-45, HCT116, and Colo205 cells; test: Long-term colony formation assay; type: cell-based; details: 0.31 to 2.5 μM, 7 days
Excerpt: Next, we investigated the long-term effect of I-Trp on proliferation of the target cells using the colony formation assay.

intracellular Ca^2+ = test: Fluo-4 intracellular Ca2+ assay; type: cell-based; details: the four cancer cell lines, Fluo-4, 40 min
Method: We used a Fluo-4 direct calcium assay kit from Invitrogen (catalog item F10471) to measure the intracellular calcium response to I-Trp in target cancer cell lines. Cancer cell lines were cultured in 96-well plates with media containing 10% FBS. After reaching confluence, cancer cells were treated with MCN-A-343 (positive control), BATPA (negative control), or I-Trp and incubated with Fluo-4 direct calcium reagent loading solution for 40 min. After incubation, the fluorescence signal was immediately measured using a fluorescence microplate reader at excitation and emission of 509 and 516 nm, respectively.

β-tubulin = tested on: β-tubulin; parameters: method as in PMID 19690144; details: cited from earlier work
[3] = tested on: CCT-β : β-tubulin complex; test: co-IP with CCT-β antibody, immunoblot for β-tubulin; type: cell-based; details: 5 or 10 μM, 6 h; MDA-MB-231, MKN-45, HCT116, Colo205 lysates
Method: With GADPH as a protein-loading control, we also confirmed that the input of β-tubulin and CCT-β in the experiments was equal with or without treatment. […] After 24–48 h of I-Trp treatment, cells underwent apoptosis to trigger proteasome activity for cellular protein degradation as reported previously.[14]
(a) Using CCT-β antibody to co-IP the complex, and then detecting the quantity of trapped β-tubulin with western blotting using β-tubulin antibody. […] The cancer cells were treated with I-Trp for the designated time periods. Cell lysates were examined using the proteasome activity assay. (c) The changed expression levels of ER stress protein markers upon I-Trp treatment
The cell lysates (100 μg) were boiled for 5 min in SDS sample buffer (62.5 mM Tris-HCl pH 6.7, 1.25% SDS, 12.5% glycerol, and 2.5% β-mercaptoethanol), and the proteins were separated via SDS-PAGE. For western blotting, proteins were transferred onto a PVDF membrane (Millipore, MA, USA) and incubated with different antibody agents. After incubation with horseradish peroxidase (HRP)-conjugated secondary antibody, immuno-reactive protein bands were visualized using the enhanced chemiluminescence (ECL) system (Amersham Bioscience, Tokyo, Japan).

caspases = test: Caspase activity assay (fluorescent substrates); type: cell-based; details: EC50 concentrations, 72 h, the four cancer cell lines
Method: The caspase activity assay was performed according to the manufacturer’s guidelines (BioVision). Briefly, cell lysates (200 μg) were diluted in 50 μl of cell lysis buffer (supplied by the kit). Equal volumes of the 2 × reaction buffer (supplied by the kit) containing 10 mM DTT were added to the cell lysates. Subsequently, 50 μM of fluorescent dye-conjugated caspase substrate was individually added to the designated caspase activity assay. After a 2-h incubation, free fluorescent dyes in the solution were read in a fluorimeter equipped with a 385-nm excitation filter and 510-nm emission filter.

CCT-β and β-tubulin mRNA = test: Real time qPCR for CCT-β and β-tubulin mRNA; type: cell-based; details: HCT116, MKN-45, MDA-MB-231, Colo205
Excerpt: Mean values ± S.D. from three independent samples are shown. The RT-PCR experiments reveal that the mRNA levels of CCT-β and β-tubulin were not changed after I-Trp treatment in the tested cancer cells.

MDA-MB-231 cells [4] = test: PI-based flow cytometric sub-G0 apoptosis assessment; type: cell-based; details: MDA-MB-231 with CCT-β shRNA clones, 10 μM, 72 h
Method: as §2

[5] = tested on: MDA-MB-231, MKN-45, HCT116, and Colo205 cells; test: as above; type: cell-based; details: 72 h, different concentrations, the four cancer cell lines
Method: as §2

proteasome activity = test: Proteasome activity assay in cell lysates; type: cell-based
Method: After being treated with I-Trp for designated time periods, cells were collected and resuspended in cell lysis buffer (BioVision). Aliquots of cell lysates (100 μg) were incubated with 1 μM of fluorescent proteasome substrate (BioVision) for 30 min at 37 °C. The fluorescent intensity was read using a fluorimeter with an exciting wavelength at 355 nm and emission wavelength at […] and presented as relative proteasome activity.

microtubules = tested on: microtubules; parameters: method as in PMID 19690144; details: cited from earlier work

SMILES	EC50 (MKN-45 cells; 72 h)	EC50 (HCT116 cells; 72 h)	EC50 (MDA-MB-231 cells [1])	EC50 (Colo205 cells; 72 h)	EC50 (MCF-10A cells)	other results
COC(=O)C(Cc1c[nH]c2ccccc12)NC(=O)CBr (stereo not drawn) [Compound 1b]	2.5 µM	1.1 µM	3.75 µM	1.6 µM	> 20 µM	killing these cancer cells (in words) (MDA-MB-231 cells [1]): almost equipotent as I-Trp (1a)
COC(=O)C(Cc1c[nH]c2ccccc12)NC(=O)C[N+](=O)[O-] (stereo not drawn) [Compound 1e]	14.1 µM	20.9 µM	> 20 µM	15.9 µM	> 20 µM	–
COC(=O)C(Cc1c[nH]c2ccccc12)NC(=O)CC(F)(F)F (stereo not drawn) [Compound 1f]	> 20 µM	> 20 µM	> 20 µM	> 20 µM	> 20 µM	–
COC(=O)C(Cc1c[nH]c2ccccc12)NC(=O)C(F)(F)F (stereo not drawn) [Compound 1g]	> 20 µM	> 20 µM	> 20 µM	> 20 µM	> 20 µM	–
COC(=O)C1Cc2c([nH]c3ccccc23)C(c2ccccc2)N1C(=O)CCl (stereo not drawn) [Compound 3]	–	–	–	–	–	EC50 (MKN-45 cells; Homo sapiens, MKN-45, 72 h): 4.7 µM; EC50 (HCT116 cells; Homo sapiens, HCT-116, 72 h): 3.3 µM; EC50 (MDA-MB-231 cells [1]; Homo sapiens, MDA-MB-231): 2.7 µM; killing these cancer cells (in words) (MDA-MB-231 cells [1]): effectively killed cancer cells; EC50 (Colo205 cells; Homo sapiens, COLO 205, 72 h): 8.1 µM; EC50 (MCF-10A cells; Homo sapiens, MCF-10A): > 20 µM
COC(=O)C1Cc2c([nH]c3ccccc23)C(c2ccccc2)N1C(=O)CI (stereo not drawn) [Compound 4]	–	–	–	–	–	EC50 (MKN-45 cells; Homo sapiens, MKN-45, 72 h): 1.6 µM; EC50 (HCT116 cells; Homo sapiens, HCT-116, 72 h): 0.54 µM; EC50 (MDA-MB-231 cells [1]; Homo sapiens, MDA-MB-231): 0.59 µM; potency relative to doxorubicin (MDA-MB-231 cells [1]; cancer cell lines of Table 1): slightly less (~twofold) potent than doxorubicin; EC50 (Colo205 cells; Homo sapiens, COLO 205, 72 h): 0.99 µM; EC50 (MCF-10A cells; Homo sapiens, MCF-10A): ~20 µM; toxicity relative to doxorubicin on MCF-10A (MCF-10A cells; MCF-10A): significantly less (~fivefold) toxic compared to doxorubicin
N#CC(=C(/N)Sc1ccccc1N)/C(C#N)=C(/N)Sc1ccccc1N [Compound U0126]	–	–	–	–	–	reversal of I-Trp-induced apoptosis (I-Trp-induced apoptosis; MKN-45 cells, 0.5–10 μM pretreatment 1 h): could not reverse the I-Trp-induced apoptosis
COc1cccc2c1C(=O)c1c(O)c3c(c(O)c1C2=O)C[C@@](O)(C(=O)CO)C[C@@H]3O[C@H]1C[C@H](N)[C@H](O)[C@H](C)O1 [Doxorubicin, reference compound]	–	–	–	–	–	EC50 (MKN-45 cells; Homo sapiens, MKN-45, 72 h): 0.24 µM; EC50 (HCT116 cells; Homo sapiens, HCT-116, 72 h): 0.26 µM; EC50 (MDA-MB-231 cells [1]; Homo sapiens, MDA-MB-231): 0.46 µM; EC50 (Colo205 cells; Homo sapiens, COLO 205, 72 h): 0.5 µM; EC50 (MCF-10A cells; Homo sapiens, MCF-10A): 3.8 µM
COC(=O)[C@@H](Cc1c[nH]c2ccccc12)NC(=O)CI [I-Trp]	1.27 µM	0.88 µM	2.5 µM	0.9 µM	> 20 µM	colony formation [2]: formed more diffuse or smaller colonies; intracellular Ca^2+ mobilization (intracellular Ca^2+): induced the intracellular Ca^2+ mobilization in a dose-dependent manner; covalent modification of β-tubulin (β-tubulin): alkylate Cys^354 of β-tubulin; disruption of the CCT-β : β-tubulin complex (trapped β-tubulin) [3]: disrupted the CCT-β : β-tubulin complex; activities of caspases-2 to -9 (caspases): enhanced; mRNA levels of CCT-β and β-tubulin (CCT-β and β-tubulin mRNA): not changed; cell death (sub-G0) after knockdown of CCT-β (MDA-MB-231 cells [4]): significantly (P<0.001) reduced cell death from I-Trp exposure; sub-G0 cell accumulation [5]: dose-dependent sub-G0 cell accumulation; proteasome activities (proteasome activity; MDA-MB-231 cells): less apparent; proteasome activities (proteasome activity; MKN-45, HCT116, and Colo205 cells): elevated in an I-Trp dose-dependent manner; effect on polymerization/depolymerization of microtubules (microtubules): does not affect the polymerization/depolymerization of microtubules; toxicity to MCF-10A (in words) (MCF-10A cells; MCF-10A): non-toxic
C[S+]([O-])c1ccc(-c2nc(-c3ccncc3)c(-c3ccc(F)cc3)[nH]2)cc1 (stereo not drawn) [SB203580]	–	–	–	–	–	reversal of I-Trp-induced apoptosis (I-Trp-induced apoptosis; 1–10 μM pretreatment 1 h, the cancer cell lines): reduced the percentage of I-Trp-induced apoptotic cells
Oc1c2ccccc2c2c3c(cccc13)N=N2 [SP600125]	–	–	–	–	–	reversal of I-Trp-induced apoptosis (I-Trp-induced apoptosis; MDA-MB-231 and HCT116 cells, 1–10 μM pretreatment 1 h): could not reverse I-Trp-induced apoptosis

Further lines, with some results ahead:

EC50 (MKN-45 cells; 72 h)	EC50 (HCT116 cells; 72 h)	EC50 (MDA-MB-231 cells [1])	EC50 (Colo205 cells; 72 h)	SMILES	EC50 (MCF-10A cells)	other results
> 20 µM	> 20 µM	19.5 µM	> 20 µM	COC(=O)C(Cc1c[nH]c2ccccc12)NC(=O)CCl (stereo not drawn) [Compound 1c]	> 20 µM	killing these cancer cells (in words) (MDA-MB-231 cells [1]): mostly inactive
> 20 µM	> 20 µM	> 20 µM	> 20 µM	COC(=O)C(Cc1c[nH]c2ccccc12)NC(=O)C(Cl)Cl (stereo not drawn) [Compound 1d]	> 20 µM	–
> 20 µM	> 20 µM	> 20 µM	> 20 µM	COC(=O)C(Cc1c[nH]c2ccccc12)NC(=O)CC#N (stereo not drawn) [Compound 1h]	> 20 µM	–
